Measured values: patent US20230265151A1, “GIP/GLP1 CO-AGONIST COMPOUNDS” (priority 2020, published 2023)
Like-named read-outs stand apart in the source and are kept apart here.

Legend:
Format in all cases: cell-based
hGLP-1R = hGLP-1R (Homo sapiens, UniProt P43220); assay: Functional cAMP formation (HTRF) in HEK-293 clonal cells expressing hGLP-1R, 0.1% bovine casein, without or with 1.0% human serum albumin; design: expressed in transfected cells; settings: for EC50: cAMP; for Emax: percent of maximal response to GLP-1(7-36)NH2
Procedure, shortened: (§1)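 Readings of the HTRF 665/620 nm ratio, which falls as cAMP rises, were converted to nM cAMP using a standard curve after 30 min peptide exposure at 37° C.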

hGIPR = biological target: T1, hGIPR (Homo sapiens, UniProt P48546); assay: Functional cAMP formation (HTRF) in HEK-293 clonal cells expressing hGIPR, 0.1% bovine casein, without or with 1.0% human serum albumin; settings: for Emax: percent of maximal response to GIP(1-42)NH2; for EC50: cAMP, 0.1% bovine casein (no human serum albumin), geometric mean
T1 construct: expressed in transfected cells
T1 sequence (P48546 22-466): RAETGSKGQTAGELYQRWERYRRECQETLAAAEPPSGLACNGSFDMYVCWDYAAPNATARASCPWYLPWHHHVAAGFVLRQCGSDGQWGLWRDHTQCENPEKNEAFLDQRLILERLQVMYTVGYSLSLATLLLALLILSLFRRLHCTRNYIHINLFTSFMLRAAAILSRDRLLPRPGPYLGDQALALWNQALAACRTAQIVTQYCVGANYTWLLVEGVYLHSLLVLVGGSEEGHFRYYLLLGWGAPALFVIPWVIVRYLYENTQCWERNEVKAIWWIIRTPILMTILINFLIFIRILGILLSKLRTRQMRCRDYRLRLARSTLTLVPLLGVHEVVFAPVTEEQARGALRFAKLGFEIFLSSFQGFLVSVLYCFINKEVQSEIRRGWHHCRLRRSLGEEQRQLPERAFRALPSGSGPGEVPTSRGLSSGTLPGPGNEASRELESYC
Procedure, shortened: as §1

hGCGR = biological target: T2, hGCGR (Homo sapiens, UniProt P47871); assay: Functional cAMP formation (HTRF) in HEK-293 clonal cells expressing hGCGR, 0.1% bovine casein, without or with 1.0% human serum albumin; settings: cAMP, 37° C.
T2 construct: expressed in transfected cells
Procedure, shortened: as §1

[1] = hGLP-1R EC50, nM (SEM, n), 37° C., 0.1% bovine casein (no human serum albumin), geometric mean
[2] = HEK293, read-out: hGIPR Emax, % ± SEM, cAMP, 37° C., 0.1% bovine casein and 1.0% human serum albumin
[3] = hGIPR EC50, nM (SEM, n), 37° C.
[4] = hGCGR EC50, nM (SEM, n), 0.1% bovine casein (no human serum albumin), geometric mean
[5] = hGCGR EC50, nM (SEM, n), 0.1% bovine casein and 1.0% human serum albumin, geometric mean (SEM, n)
[6] = HEK293, read-out: hGLP-1R Emax, % ± SEM, cAMP, 37° C., 0.1% bovine casein and 1.0% human serum albumin

T2 sequence (P47871 26-477): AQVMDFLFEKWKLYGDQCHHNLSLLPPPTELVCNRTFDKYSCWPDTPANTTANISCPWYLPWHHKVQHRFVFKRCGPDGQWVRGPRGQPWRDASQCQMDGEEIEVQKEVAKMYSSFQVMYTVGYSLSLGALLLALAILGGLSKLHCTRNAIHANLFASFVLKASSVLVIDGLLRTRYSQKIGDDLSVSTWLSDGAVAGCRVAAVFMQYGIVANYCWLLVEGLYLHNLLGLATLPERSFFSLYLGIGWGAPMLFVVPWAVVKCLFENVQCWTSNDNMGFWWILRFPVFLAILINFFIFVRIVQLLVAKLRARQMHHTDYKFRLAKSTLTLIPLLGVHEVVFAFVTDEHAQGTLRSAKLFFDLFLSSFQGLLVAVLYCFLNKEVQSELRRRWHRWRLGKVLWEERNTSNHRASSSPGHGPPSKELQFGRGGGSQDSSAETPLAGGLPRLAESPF
Sequence of hGLP-1R (P43220 24-463): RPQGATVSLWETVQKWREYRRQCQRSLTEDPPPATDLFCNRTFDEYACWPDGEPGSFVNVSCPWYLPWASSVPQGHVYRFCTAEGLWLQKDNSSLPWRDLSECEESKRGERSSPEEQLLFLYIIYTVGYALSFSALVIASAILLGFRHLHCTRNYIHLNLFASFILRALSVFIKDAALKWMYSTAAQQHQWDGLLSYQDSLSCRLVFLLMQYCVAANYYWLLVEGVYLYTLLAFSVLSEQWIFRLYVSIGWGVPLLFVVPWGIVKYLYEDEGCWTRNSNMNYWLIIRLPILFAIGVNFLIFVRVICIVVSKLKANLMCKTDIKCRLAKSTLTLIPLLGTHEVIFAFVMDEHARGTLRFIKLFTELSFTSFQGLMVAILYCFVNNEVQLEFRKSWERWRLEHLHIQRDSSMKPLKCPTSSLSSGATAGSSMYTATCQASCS

Compound: CC[C@H](C)[C@H](NC(=O)[C@H](CC(C)C)NC(=O)[C@](C)(Cc1ccc(O)cc1)NC(=O)[C@@H](CCC(=O)O)NC(=O)[C@@H](NC(=O)[C@H](Cc1ccccc1)NC(=O)[C@H](CCC(=O)O)NC(=O)C(C)(C)NC(=O)[C@H](CCC(N)=O)NC(=O)[C@H](C)NC(=O)[C@H](CCCCNC(=O)COCCOCCNC(=O)COCCOCCNC(=O)CC[C@H](NC(=O)CCCCCCCCCOc1ccc(C(=O)O)cc1)C(=O)O)NC(=O)[C@H](CCCN)NC(=O)[C@H](CC(=O)O)NC(=O)[C@H](CC(C)C)NC(=O)[C@](C)(CC(C)C)NC(=O)[C@@H](NC(=O)[C@H](CO)NC(=O)[C@H](CCc1ccc(O)cc1)NC(=O)[C@H](CC(=O)O)NC(=O)[C@H](CO)NC(=O)[C@@H](NC(=O)[C@](C)(Cc1ccccc1F)NC(=O)[C@@H](NC(=O)CNC(=O)[C@H](CCC(=O)O)NC(=O)C(C)(C)NC(=O)[C@@H](N)Cc1ccc(O)cc1)[C@@H](C)O)[C@@H](C)O)[C@@H](C)CC)[C@@H](C)CC)C(=O)N[C@@H](CCCCNC(=O)COCCOCCNC(=O)COCCOCCNC(=O)CC[C@H](NC(=O)CCCCCCCCCOc1ccc(C(=O)O)cc1)C(=O)O)C(=O)NCC(=O)NCC(=O)N1CCC[C@H]1C(=O)N[C@@H](CO)C(=O)N[C@@H](CO)C(=O)NCC(=O)N[C@@H](C)C(=O)N1CCC[C@H]1C(=O)N1CCC[C@H]1C(=O)N1CCC[C@H]1C(=O)N[C@@H](CO)C(N)=O [Example 327]
- EC50 (hGLP-1R; [1]): 0.211 nM
- EC50 (hGLP-1R; hGLP-1R EC50, nM (SEM, n), 37° C., 0.1% bovine casein and 1.0% human serum albumin, geometric mean (SEM, n)): 13.6 nM
- Emax (hGIPR; [2]): 90.2%
- EC50 (hGIPR; [3]): 0.018 nM
- EC50 (hGCGR; [4]): > 9950 nM
- EC50 (hGCGR; [5]): > 9950 nM

Compound: CC[C@H](C)[C@H](NC(=O)[C@H](CCCN)NC(=O)[C@H](CC(=O)O)NC(=O)[C@H](CC(C)C)NC(=O)[C@](C)(CC(C)C)NC(=O)[C@@H](NC(=O)C(C)(C)NC(=O)[C@@H](NC(=O)[C@H](CC(=O)O)NC(=O)[C@H](CO)NC(=O)[C@@H](NC(=O)[C@](C)(Cc1ccccc1F)NC(=O)[C@@H](NC(=O)CNC(=O)[C@H](CCC(=O)O)NC(=O)C(C)(C)NC(=O)[C@@H](N)Cc1ccc(O)cc1)[C@@H](C)O)[C@@H](C)O)C(C)C)[C@@H](C)CC)C(=O)N[C@@H](C)C(=O)N[C@@H](CCC(N)=O)C(=O)NC(C)(C)C(=O)N[C@@H](CCCCNC(=O)COCCOCCNC(=O)COCCOCCNC(=O)CC[C@H](NC(=O)CCCCCCCCCCCCC(=O)O)C(=O)O)C(=O)N[C@@H](Cc1ccccc1)C(=O)N[C@H](C(=O)N[C@H](CCC(=O)O)C(=O)N[C@@](C)(Cc1ccc(O)cc1)C(=O)N[C@@H](CC(C)C)C(=O)N[C@H](C(=O)N[C@@H](CCCCNC(=O)COCCOCCNC(=O)COCCOCCNC(=O)CC[C@H](NC(=O)CCCCCCCCCCCCC(=O)O)C(=O)O)C(=O)NCC(=O)NCC(=O)N1CCC[C@H]1C(=O)N[C@@H](CO)C(=O)N[C@@H](CO)C(=O)NCC(=O)N[C@@H](C)C(=O)N1CCC[C@H]1C(=O)N1CCC[C@H]1C(=O)N1CCC[C@H]1C(=O)N[C@@H](CO)C(N)=O)[C@@H](C)CC)[C@@H](C)CC [Example 329]
- Emax (hGLP-1R; HEK293, cAMP, 37° C., 0.1% bovine casein and 1.0% human serum albumin, read-out: hGLP-1R Emax, % ± SEM): 88.3%
- EC50 (hGLP-1R; 37° C., 0.1% bovine casein (no human serum albumin), geometric mean, read-out: hGLP-1R EC50, nM (SEM, n)): 0.353 nM
- Emax (hGIPR; HEK293, cAMP, 37° C., 0.1% bovine casein and 1.0% human serum albumin, read-out: hGIPR Emax, % ± SEM): 100%
- Emax (hGIPR; HEK293, cAMP, 37° C., 0.1% bovine casein, arithmetic mean, read-out: hGIPR Emax, % ± SEM): 109%
- EC50 (hGIPR; 37° C., read-out: hGIPR EC50, nM (SEM, n)): 0.015 nM
- EC50 (hGCGR; 0.1% bovine casein (no human serum albumin), geometric mean, read-out: hGCGR EC50, nM (SEM, n)): > 9950 nM
- EC50 (hGCGR; 0.1% bovine casein and 1.0% human serum albumin, geometric mean (SEM, n), read-out: hGCGR EC50, nM (SEM, n)): > 9950 nM

Compound: CC[C@H](C)[C@H](NC(=O)[C@H](CCCN)NC(=O)[C@H](CC(=O)O)NC(=O)[C@H](CC(C)C)NC(=O)[C@](C)(CC(C)C)NC(=O)[C@@H](NC(=O)C(C)(C)NC(=O)[C@@H](NC(=O)[C@H](CC(=O)O)NC(=O)[C@H](CO)NC(=O)[C@@H](NC(=O)[C@](C)(Cc1ccccc1F)NC(=O)[C@@H](NC(=O)CNC(=O)[C@H](CCC(=O)O)NC(=O)C(C)(C)NC(=O)[C@@H](N)Cc1ccc(O)cc1)[C@@H](C)O)[C@@H](C)O)C(C)C)[C@@H](C)CC)C(=O)N[C@@H](C)C(=O)N[C@@H](CCC(N)=O)C(=O)NC(C)(C)C(=O)N[C@@H](CCCCNC(=O)COCCOCCNC(=O)COCCOCCNC(=O)CC[C@H](NC(=O)CCCCCCCCCOc1ccc(C(=O)O)cc1)C(=O)O)C(=O)N[C@@H](Cc1ccccc1)C(=O)N[C@H](C(=O)N[C@H](CCC(=O)O)C(=O)N[C@@](C)(Cc1ccc(O)cc1)C(=O)N[C@@H](CC(C)C)C(=O)N[C@H](C(=O)N[C@@H](CCCCNC(=O)COCCOCCNC(=O)COCCOCCNC(=O)CC[C@H](NC(=O)CCCCCCCCCOc1ccc(C(=O)O)cc1)C(=O)O)C(=O)NCC(=O)NCC(=O)N1CCC[C@H]1C(=O)N[C@@H](CO)C(=O)N[C@@H](CO)C(=O)NCC(=O)N[C@@H](C)C(=O)N1CCC[C@H]1C(=O)N1CCC[C@H]1C(=O)N1CCC[C@H]1C(=O)N[C@@H](CO)C(N)=O)[C@@H](C)CC)[C@@H](C)CC [Example 330]
- Emax (hGLP-1R; [6]): 85%
- EC50 (hGLP-1R; [1]): 0.477 nM
- Emax (hGIPR; HEK293, read-out: hGIPR Emax, % ± SEM, cAMP, 37° C., 0.1% bovine casein, arithmetic mean): 112%
- EC50 (hGIPR; [3]): 0.0185 nM
- EC50 (hGCGR; [4]): > 9950 nM
- EC50 (hGCGR; [5]): > 9950 nM

Compound: CC[C@H](C)[C@H](NC(=O)[C@H](CCCN)NC(=O)[C@H](CC(=O)O)NC(=O)[C@H](CC(C)C)NC(=O)[C@](C)(CC(C)C)NC(=O)[C@@H](NC(=O)C(C)(C)NC(=O)[C@H](Cc1ccncc1)NC(=O)[C@H](CC(=O)O)NC(=O)[C@H](CO)NC(=O)[C@@H](NC(=O)[C@](C)(Cc1ccccc1F)NC(=O)[C@@H](NC(=O)CNC(=O)[C@H](CCC(=O)O)NC(=O)C(C)(C)NC(=O)[C@@H](N)Cc1ccc(O)cc1)[C@@H](C)O)[C@@H](C)O)[C@@H](C)CC)C(=O)N[C@@H](C)C(=O)N[C@@H](CCC(N)=O)C(=O)NC(C)(C)C(=O)N[C@@H](CCCCNC(=O)COCCOCCNC(=O)COCCOCCNC(=O)CC[C@H](NC(=O)CCCCCCCCCCOc1ccc(C(=O)O)cc1)C(=O)O)C(=O)N[C@@H](Cc1ccccc1)C(=O)N[C@H](C(=O)N[C@H](CCC(=O)O)C(=O)N[C@@](C)(Cc1ccc(O)cc1)C(=O)N[C@@H](CC(C)C)C(=O)N[C@H](C(=O)N[C@@H](CCCCNC(=O)COCCOCCNC(=O)COCCOCCNC(=O)CC[C@H](NC(=O)CCCCCCCCCCOc1ccc(C(=O)O)cc1)C(=O)O)C(=O)NCC(=O)NCC(=O)N1CCC[C@H]1C(=O)N[C@@H](CO)C(=O)N[C@@H](CO)C(=O)NCC(=O)N[C@@H](C)C(=O)N1CCC[C@H]1C(=O)N1CCC[C@H]1C(=O)N1CCC[C@H]1C(=O)N[C@@H](CO)C(N)=O)[C@@H](C)CC)[C@@H](C)CC [Example 331]
- Emax (hGLP-1R; [6]): 114%
- EC50 (hGLP-1R; [1]): 0.436 nM
- EC50 (hGIPR; [3]): 0.0113 nM
- EC50 (hGCGR; [4]): > 9950 nM
- EC50 (hGCGR; [5]): > 9950 nM

Compound: CC[C@H](C)[C@H](NC(=O)[C@H](CCCN)NC(=O)[C@H](CC(=O)O)NC(=O)[C@H](CC(C)C)NC(=O)[C@](C)(CC(C)C)NC(=O)[C@@H](NC(=O)[C@H](CO)NC(=O)[C@H](CCc1ccc(O)cc1)NC(=O)[C@H](CC(=O)O)NC(=O)[C@H](CO)NC(=O)[C@@H](NC(=O)[C@](C)(Cc1ccccc1F)NC(=O)[C@@H](NC(=O)CNC(=O)[C@H](CCC(=O)O)NC(=O)C(C)(C)NC(=O)[C@@H](N)Cc1ccc(O)cc1)[C@@H](C)O)[C@@H](C)O)[C@@H](C)CC)C(=O)N[C@@H](C)C(=O)N[C@@H](CCC(N)=O)C(=O)NC(C)(C)C(=O)N[C@@H](CCCCNC(=O)COCCOCCNC(=O)COCCOCCNC(=O)CC[C@H](NC(=O)CCCCCCCCCOc1ccc(C(=O)O)cc1)C(=O)O)C(=O)N[C@@H](Cc1ccccc1)C(=O)N[C@H](C(=O)N[C@H](CCC(=O)O)C(=O)N[C@@](C)(Cc1ccc(O)cc1)C(=O)N[C@@H](CC(C)C)C(=O)N[C@H](C(=O)N[C@@H](CCCCNC(=O)COCCOCCNC(=O)COCCOCCNC(=O)CC[C@H](NC(=O)CCCCCCCCCOc1ccc(C(=O)O)cc1)C(=O)O)C(=O)NCC(=O)NCC(=O)N1CCC[C@H]1C(=O)N[C@@H](CO)C(=O)N[C@@H](CO)C(=O)NCC(=O)N[C@@H](C)C(=O)N1CCC[C@H]1C(=O)N1CCC[C@H]1C(=O)N1CCC[C@H]1C(=O)N[C@@H](CO)C(N)=O)[C@@H](C)CC)[C@@H](C)CC [Example 332]
- Emax (hGLP-1R; [6]): 116%
- Emax (hGLP-1R; HEK293, read-out: hGLP-1R Emax, % ± SEM, cAMP, 37° C., 0.1% bovine casein, arithmetic mean): 114%
- EC50 (hGLP-1R; [1]): 0.263 nM
- Emax (hGIPR; [2]): 96.5%
- EC50 (hGCGR; [4]): > 9950 nM
- EC50 (hGCGR; [5]): > 9950 nM
